Measurements from US4468385A, “Poly-cation salts of 4-O-poly-hexaose-thio-alkylene sulfate derivatives and method of use” (American Cyanamid Company, priority 1983, dated 1984).
Values joined by “and” are separate entries in the source; they are usually repeats but may differ in a detail not shown here. Equal entries are not always repeated. Structures can show the parent of a compound that is named as a salt. Each block holds one compound with its values, some of them ahead of it.

How the values were obtained:
activated human C1 = activated human C1 (Homo sapiens, UniProt P09871); experiment: Test Code 026 (C1 inhibitor): protection of fluid phase human C2 from activated human C1 in the presence of C4; type: biochemical; conditions: serial twofold dilution assay; higher well number indicates higher activity
[1] = system: hereditary angioneurotic edema; conditions: literature report; cited from earlier work
complement system = conditions: literature report; cited from earlier work
[2] = system: total hemolytic complement activity; conditions: in vitro and in vivo, judged by reduction in total hemolytic complement activity; cited from earlier work

- In vitro Activity Cl 026 Wells (activated human C1): 6 Wells and 9 Wells
Compound: O=S(=O)(O)OC[C@H]1O[C@H](O[C@H]2[C@H](O)[C@@H](OS(=O)(=O)O)[C@H](SCC(S)CO)O[C@@H]2COS(=O)(=O)O)[C@H](OS(=O)(=O)O)[C@@H](O)[C@@H]1O (stereo partly drawn) [3-Hydroxy-2-mercaptopropyl 4-O-α-D-glucopyranosyl-1-thio-β-D-glucopyranoside-tetrakis-(H-sulfate) tetrasodium salt]

- In vitro Activity Cl 026 Wells (activated human C1): 6 Wells
Compound: CC(=O)NC(CCS[C@@H]1O[C@H](COS(=O)(=O)O)[C@@H](O[C@H]2O[C@H](COS(=O)(=O)O)[C@@H](OS(=O)(=O)O)[C@H](OS(=O)(=O)O)[C@H]2OS(=O)(=O)O)[C@H](OS(=O)(=O)O)[C@H]1OS(=O)(=O)O)C(=O)O (stereo partly drawn) [4-[2,3,6-Tri-O-sulfo-4-O-(2,3,4,6-tetra-O-sulfo-α-D-glucopyranosyl)-β-D-glucopyranosyl]-2-acetamido-4-mercaptobutyric acid heptasodium salt]

Compound: NC[C@H]1CC[C@H](C(=O)O)CC1 [tranexamic acid]
- treatment of hereditary angioneurotic edema [1]: used with success

Compound: Nc1ccc2cc(S(=O)(=O)[O-])cc(O)c2c1N=Nc1ccc(NC(=O)Nc2ccc(N=Nc3c(N)ccc4cc(S(=O)(=O)[O-])cc(O)c34)c(S(=O)(=O)[O-])c2)cc1S(=O)(=O)[O-].[Na+].[Na+].[Na+].[Na+] [chlorazol fast pink, 3,3'-ureylenebis[6-(2-amino-8-hydroxy-6-sulfo-1-naphthylazo)benzenesulfonic acid], tetrasodium salt]
- anticomplementary effect (complement system): anticomplementary effect

Compound: NCCCCCC(=O)O [epsilon-aminocaproic acid]
- treatment of hereditary angioneurotic edema [1]: used with success

Compound: pentosan- polysulfoester
- anticomplementary activity on human serum [2]: anticomplementary activity

- In vitro Activity Cl 026 Wells (activated human C1): 1 Wells
Compound: N[C@@H](CS[C@@H]1O[C@H](COS(=O)(=O)O)[C@@H](O[C@H]2O[C@H](COS(=O)(=O)O)[C@@H](OS(=O)(=O)O)[C@H](OS(=O)(=O)O)[C@H]2OS(=O)(=O)O)[C@H](OS(=O)(=O)O)[C@H]1OS(=O)(=O)O)C(=O)O [4-[2,3,6-Tri-O-sulfo-4-O-(2,3,4,6-tetra-O-sulfo-α-D-glucopyranosyl)-β-D-glucopyranosyl]-L-cysteine heptasodium salt]

Compound: O=S(=O)([O-])OC[C@H]1O[C@@H](SCC(O)C(O)CS)[C@H](OS(=O)(=O)[O-])[C@@H](OS(=O)(=O)[O-])[C@@H]1O[C@H]1O[C@H](COS(=O)(=O)[O-])[C@@H](OS(=O)(=O)[O-])[C@H](OS(=O)(=O)[O-])[C@H]1OS(=O)(=O)[O-].[Na+].[Na+].[Na+].[Na+].[Na+].[Na+].[Na+] (stereo partly drawn) [2,3-Dihydroxy-4-mercaptobutyl 2,3,6-tri-O-sulfo-4-O-(2,3,4,6-tetra-O-sulfo-α-D-glucopyranosyl)-1-thio-β-D-glucopyranoside heptasodium salt]
- In vitro Activity Cl 026 Wells (activated human C1): 12 Wells

Compound: heparin
- anticomplementary effect (complement system): anticomplementary effect
